# Data as given in article PMC5444726, “A CD44-specific peptide, RP-1, exhibits capacities of assisting diagnosis and predicting prognosis of gastric cancer” (Oncotarget, 2017).
# What was measured:
# [1] = test system: CD44 in gastric carcinoma and surrounding tissues; assay: Immunohistochemistry of human gastric cancer tissue microarray; conditions: for RP-1 staining negative, number (%) / RP-1 staining positive, number (%): % of all 100 cases
# Procedure: Prepared paraffin-embedded sections were deparaffinized, rehydrated, retrieved and blocked with 5% BSA (w/v) in PBS at ambient temperature for 30 min. Then, sections were incubated with 100 μM biotin labeled RP-1 peptide or human specific rabbit anti-CD44 monoclonal antibody (1:200, ZSGB-BIO, Beijing, China) overnight at 4°C. After PBS washing for three times, sections were subsequently incubated with streptavidin-HRP (1:500, Proteintech, Wuhan, China) and goat anti-rabbit secondary antibody (1:300, BOSTER, Wuhan, China). Diaminobenzidine (DAB, ZSGB-BIO, Beijing, China) was used as a chromogen. Finally, the sections were counterstained with hematoxylin and mounted with neutral balsam.
# Two TMA slides (Shanghai Outdo Biotech Co LTD, Shanghai, China), each containing 100 GC tissues samples (including 66 adenocarcinoma, 19 tubular adenocarcinoma, 8 mucinous adenocarcinoma, 2 undifferentiated carcinoma and 5 signet-ring cell carcinoma tissue samples) and 80 surrounding tissue samples from 100 patients, were used to evaluate the diagnostic and prognostic effects of RP-1. Samples were obtained from treatment-naive patients with written informed consent signed and dated. Age of the 100 patients with GC ranged from 32 to 81 years (mean, 64.4 years). Their clinicopathological characteristics were described in Table 2. The TNM stage of all patients with GC was assessed according to the American Joint Commission for Cancer (AJCC 7th edition) and tumors were histologically classified according to the criteria described by the World Health Organization (2000). The Medical Ethics Committee of Taizhou Hospital of Zhejiang province reviewed and approved all studies.
# We performed immunohistochemical staining of TMA slides with RP-1 and human specific anti-CD44 monoclonal antibody by following the procedure described in the section Immunohistochemistry. The immunoreactivity was assessed with the immunohistochemistry score (HSCORE) system, which evaluated the staining intensity and percentages of positive cells stained at a specific magnitude of intensity. The HSCORE was calculated using the equation HSCORE=∑Pi(i) (i = 0, 1, 2, 3, Pi = 0–100%), in which i was the staining intensity (0, no staining; 1, weak staining; 2, moderate staining; 3, strong staining) and Pi was the percentage of positive cells on a scale of 0% to 100%. Positive cell count was assessed in 5 randomly selected fields of vision with a microscope (400×). All immunohistochemical evaluations were conducted by two independent pathologists […].
# Receiver–operator curve (ROC) analysis was performed to determine the cut-off score for both RP-1 peptide and anti-CD44 monoclonal antibody. The score closest to the point (0.0, 1.0) with maximum sensitivity and specificity was identified as the cut-off score. Samples with a HSCORE of cut-off value or below were considered as negative staining, otherwise they were considered as positive staining.
# Statistical analysis was conducted with SPSS software, version 21.0 (IBM, New York, USA). Kappa values were used to determine the consistency of histological and immunohistochemical results between RP-1 peptide and anti-CD44 antibody. Independent sample t-test was performed to decide existence of statistical difference in fluorescent intensity values between tumor and other normal organs. The ROC analysis was carried out to decide the cut-off value for RP-1 and anti-CD44 antibody. The area under the curve (AUC) was calculated to compare the diagnostic accuracy of RP-1 and anti-CD44 antibody. χ^2-test was used to assess the association between each clinicopathological variable and RP-1 staining intensity, while log-rank test was used for assessing the association between survival and each clinicopathological variable. Multiple Cox proportional hazards regression was performed to verify if RP-1 positivity can be used as an independent risk factor for prognosis of GC. […]
# CD44 protein = conditions: peptide screened from 12-mer phage peptide library; ref [25]; cited from earlier work
# Source text: The purpose of the current study was to validate the specificity and affinity of RP-1 in both in vitro and in vivo experiment ...
# [2] = test system: SGC-7901 subcutaneous xenograft; assay: In vivo fluorescence imaging and biodistribution in SGC-7901 xenograft mice
# Procedure: All animal procedures were approved by the Ethics Committee of Xi’an Jiaotong University and conducted in accordance with the Helsinki Declaration (1975). Athymic nude mice (male, 4–5 weeks old, with a body weight of 20–25 g) were obtained from the Animal Experiment Center of Xi’an Jiaotong University, Xi’an, China. The SGC-7901 tumor xenografts were generated by subcutaneous injection of 5–8 × 10^6 SGC-7901 cells suspended in 200 μL culture medium into the left axilla of mice. The cells were allowed to grow for 2 weeks until tumor volume reached an estimate of 1 cm^3.
# In vivo fluorescence imaging was performed with the IVIS Spectrum Imaging System and analyzed with the IVIS Living Imaging 4.2 software (Xenogen, California, USA). Identical imaging settings (exposure time: 40s; binning: 16; lens aperture [f/stop]: 4; field of view: 13.3) were used for capturing images. Fluorescent intensity was normalized and presented as (p/sec/cm^2/sr)/(μW/cm^2). The mice from the experimental group (n = 10) and control group (n = 10) were intravenously injected with 1 mg/kg FITC-RP-1 and FITC-WYP, respectively. Mice anesthetized with isoflurane were subjected to optical imaging at each hour since 1h after injection. Finally, solid tumors, tissues, and organs were all harvested and rinsed with PBS for further analysis of the distribution of FITC-RP-1.
# [3] = adenocarcinoma, 66 cases, P = 0.182
# [4] = age > 64.4, 46 cases, P = 0.036
# [5] = age ≤ 64.4, 54 cases, P = 0.036
# [6] = all antibody results, total 100
# [7] = clinicopathological stage I, 10 cases, P = 0.526
# [8] = clinicopathological stage II, 32 cases, P = 0.526
# [9] = clinicopathological stage III, 50 cases, P = 0.526
# [10] = clinicopathological stage IV, 8 cases, P = 0.526
# [11] = moderately differentiated, 69 cases, P = 0.066
# [12] = mucinous adenocarcinoma, 8 cases, P = 0.182
# [13] = poorly differentiated, 5 cases, P = 0.066
# [14] = signet ring cell carcinoma, 4 cases, P = 0.182
# [15] = tubular adenocarcinoma, 19 cases, P = 0.182
# [16] = undifferentiated carcinoma, 3 cases, P = 0.182
# [17] = well differentiated, 26 cases, P = 0.066
# [18] = excised tissue, 3 h after i.v. FITC-RP-1, 1 μg/g
sequence,measurement,setting,value
WHPWSYLWTQQA [RP-1],"RP-1 staining negative, number (%)",[1]; [3],16 (16.0)
same,"RP-1 staining positive, number (%)",[1]; [3],50 (50.0)
same,"RP-1 staining negative, number (%)",[1]; [4],12 (12.0)
same,"RP-1 staining positive, number (%)",[1]; [4],34 (34.0)
same,"RP-1 staining negative, number (%)",[1]; [5],15 (15.0)
same,"RP-1 staining positive, number (%)",[1]; [5],39 (39.0)
same,number of pericarcinomatous tissues RP-1 negative,"[1]; all antibody results, total 80",70
same,number of pericarcinomatous tissues RP-1 positive,"[1]; all antibody results, total 80",10
same,number of gastric carcinoma tissues RP-1 negative,[1]; [6],27
same,number of gastric carcinoma tissues RP-1 positive,[1]; [6],73
same,number of gastric carcinoma tissues RP-1 negative,[1]; antibody negative,18
same,number of gastric carcinoma tissues RP-1 positive,[1]; antibody negative,18
same,number of pericarcinomatous tissues RP-1 negative,[1]; antibody negative,56
same,number of pericarcinomatous tissues RP-1 positive,[1]; antibody negative,9
same,number of gastric carcinoma tissues RP-1 negative,[1]; antibody positive,9
same,number of gastric carcinoma tissues RP-1 positive,[1]; antibody positive,55
same,number of pericarcinomatous tissues RP-1 negative,[1]; antibody positive,14
same,number of pericarcinomatous tissues RP-1 positive,[1]; antibody positive,1
same,"RP-1 staining negative, number (%)",[1]; [7],4 (4.0)
same,"RP-1 staining positive, number (%)",[1]; [7],6 (6.0)
same,"RP-1 staining negative, number (%)",[1]; [8],10 (10.0)
same,"RP-1 staining positive, number (%)",[1]; [8],22 (22.0)
same,"RP-1 staining negative, number (%)",[1]; [9],12 (12.0)
same,"RP-1 staining positive, number (%)",[1]; [9],38 (38.0)
same,"RP-1 staining negative, number (%)",[1]; [10],1 (1.0)
same,"RP-1 staining positive, number (%)",[1]; [10],7 (7.0)
same,"RP-1 staining negative, number (%)","[1]; died, 69 cases, P < 0.001",11 (11.0)
same,"RP-1 staining positive, number (%)","[1]; died, 69 cases, P < 0.001",58 (58.0)
same,"RP-1 staining negative, number (%)","[1]; female, 36 cases, P = 0.895",10 (10.0)
same,"RP-1 staining positive, number (%)","[1]; female, 36 cases, P = 0.895",26 (26.0)
same,"RP-1 staining negative, number (%)","[1]; male, 64 cases, P = 0.895",17 (17.0)
same,"RP-1 staining positive, number (%)","[1]; male, 64 cases, P = 0.895",47 (47.0)
same,"RP-1 staining negative, number (%)",[1]; [11],21 (21.0)
same,"RP-1 staining positive, number (%)",[1]; [11],53 (53.0)
same,"RP-1 staining negative, number (%)",[1]; [12],5 (5.0)
same,"RP-1 staining positive, number (%)",[1]; [12],3 (3.0)
same,"RP-1 staining negative, number (%)","[1]; pM0, 91 cases, P = 0.260",26 (26.0)
same,"RP-1 staining positive, number (%)","[1]; pM0, 91 cases, P = 0.260",65 (65.0)
same,"RP-1 staining negative, number (%)","[1]; pM1, 9 cases, P = 0.260",1 (1.0)
same,"RP-1 staining positive, number (%)","[1]; pM1, 9 cases, P = 0.260",8 (8.0)
same,"RP-1 staining negative, number (%)","[1]; pN0, 27 cases, P = 0.101",6 (6.0)
same,"RP-1 staining positive, number (%)","[1]; pN0, 27 cases, P = 0.101",21 (21.0)
same,"RP-1 staining negative, number (%)","[1]; pN1, 15 cases, P = 0.101",8 (8.0)
same,"RP-1 staining positive, number (%)","[1]; pN1, 15 cases, P = 0.101",7 (7.0)
same,"RP-1 staining negative, number (%)","[1]; pN2, 28 cases, P = 0.101",6 (6.0)
same,"RP-1 staining positive, number (%)","[1]; pN2, 28 cases, P = 0.101",22 (22.0)
same,"RP-1 staining negative, number (%)","[1]; pN3, 30 cases, P = 0.101",7 (7.0)
same,"RP-1 staining positive, number (%)","[1]; pN3, 30 cases, P = 0.101",23 (23.0)
same,"RP-1 staining negative, number (%)","[1]; pT1, 8 cases, P = 0.399",3 (3.0)
same,"RP-1 staining positive, number (%)","[1]; pT1, 8 cases, P = 0.399",5 (5.0)
same,"RP-1 staining negative, number (%)","[1]; pT2, 9 cases, P = 0.399",1 (1.0)
same,"RP-1 staining positive, number (%)","[1]; pT2, 9 cases, P = 0.399",6 (6.0)
same,"RP-1 staining negative, number (%)","[1]; pT3, 66 cases, P = 0.399",20 (20.0)
same,"RP-1 staining positive, number (%)","[1]; pT3, 66 cases, P = 0.399",45 (45.0)
same,"RP-1 staining negative, number (%)","[1]; pT4, 17 cases, P = 0.399",3 (3.0)
same,"RP-1 staining positive, number (%)","[1]; pT4, 17 cases, P = 0.399",17 (17.0)
same,"RP-1 staining negative, number (%)",[1]; [13],0 (0.0)
same,"RP-1 staining positive, number (%)",[1]; [13],11 (11.0)
same,"RP-1 staining negative, number (%)",[1]; [14],1 (1.0)
same,"RP-1 staining positive, number (%)",[1]; [14],4 (4.0)
same,"RP-1 staining negative, number (%)","[1]; survived, 31 cases, P < 0.001",16 (16.0)
same,"RP-1 staining positive, number (%)","[1]; survived, 31 cases, P < 0.001",15 (15.0)
same,HSCORE of GC samples versus surrounding tissue,"[1]; t-test, P < 0.001",significantly higher
same,cell types stained positive,"[1]; tissue microarray, gastric carcinoma and surrounding tissue",positive only in tumor cells
same,"RP-1 staining negative, number (%)",[1]; [15],5 (5.0)
same,"RP-1 staining positive, number (%)",[1]; [15],14 (14.0)
same,"RP-1 staining negative, number (%)",[1]; [16],0 (0.0)
same,"RP-1 staining positive, number (%)",[1]; [16],2 (2.0)
same,"RP-1 staining negative, number (%)",[1]; [17],6 (6.0)
same,"RP-1 staining positive, number (%)",[1]; [17],9 (9.0)
same,binding to CD44 protein,CD44 protein,can specifically bind to CD44 protein
same,organs with accumulation (fluorescence of excised tissues),"[2]; 3 h after i.v. injection of FITC-labeled peptide, 1 μg/g",accumulation of RP-1 in tumor tissue and liver
same,fluorescence signal remaining (elimination),[2]; 6 h after intravenous injection,almost undetectable
same,"fluorescent intensity, kidney",[2]; [18],2.00 × 10^8 (p/sec/cm^2/sr) /(μW/cm^2)
same,"fluorescent intensity, liver",[2]; [18],5.58 × 10^8 (p/sec/cm^2/sr) /(μW/cm^2)
same,"fluorescent intensity, stomach",[2]; [18],2.28 × 10^8 (p/sec/cm^2/sr) /(μW/cm^2)
same,"fluorescent intensity, tumor","[2]; excised tissue, 3 h after i.v. FITC-RP-1, 1 μg/g, tumor vs other organs P < 0.001",1.14 × 10^9 (p/sec/cm^2/sr) /(μW/cm^2)
